Read-outs that look alike come from different tables or passages of the source.
Experiments:
[1] = test system: adult mongrel dogs; experiment: acute in vivo cardiotonic activity in anesthetized dogs; parameters: species or system dog (adult mongrel); details: Canis lupus familiaris, cardiotonic, relative to controls; for change in vivo at 0.875 mg/kg: dose 0.875 mg/kg intravenous; for change in vivo at 1.875 mg/kg: dose 1.875 mg/kg intravenous; for change in vivo at 0.125 mg/kg: dose 0.125 mg/kg intravenous; for change in vivo at 8.75 mg/kg: dose 8.75 mg/kg intravenous; for change in vivo at 1.87 mg/kg: dose 1.87 mg/kg intravenous
Method: The acute in vivo cardiotonic activity of compounds prepared according to the present invention was determined according to a modification of the procedure described by Alousi et al., Circ. Res., 45, 666 (1979).
In particular, adult mongrel dogs were anesthetized with sodium pentobarbital and were artificially respired. Arterial pressure was monitored via a femoral artery, and the pulse pressure was used to trigger a cardiotachometer for heart rate. Left ventricular pressure was determined with a Millar catheter, and dP/dt (the change in ventricular pressure with time) was derived. Cardiac output was determined by measuring ascending aortic blood flow with an electromagnetic flow probe, and myocardial contractile force was measured with a Walton Brodie strain gauge sutured to the right ventricle. Lead II EKG was also recorded.
A standard dose (10 μg/kg/min) of dopamine was administered to assess myocardial responsiveness.
Compounds of the invention were administered by intravenous infusion or bolus […] administration, and the effects on cardiovascular parameters were determined.
Dose related effects of the test compound on blood pressure (BP), heart rate (HR), maximum change in left ventricular pressure with time (dP/dt max),% change in cardiac force (CF) and the increase in mean arterial blood pressure relative to controls (MABP) were compared to pretreatment control values, expressed as a% change and rated for activity.

[2] = test system: adult mongrel dogs; experiment: renal vasodilating activity in anesthetized dogs; type: in vivo, dog (adult mongrel); details: Canis lupus familiaris, renal vasodilator, relative to controls; for change in vivo at 13.9 mg/kg / change in vivo at up to 13.9 mg/kg: dose 13.9 mg/kg intravenous; for change in vivo at 1.2 mg/kg: dose 1.2 mg/kg intravenous; for change in vivo at 6.2 mg/kg: dose 6.2 mg/kg intravenous
Method: Goldberg et al, J. Pharmacol. Exp. Ther., 163, 188 (1968), performed an investigation of the structural requirements for dopamine-like renal vasodilation of phenethylamines and apomorphine. The following procedure is a variation of the assay described in that report.
Adult mongrel dogs were anesthetized and surgically prepared for electromagnetic measurement of renal artery blood flow. A carotid artery was cannulated for measuring arterial blood pressure, and drugs were administered intravenously. Heart rate was monitored with a cardiotachometer. Renal vascular resistance was calculated as the ratio of mean arterial blood pressure/renal artery blood flow. Dopamine was infused intravenously at 3 μg/kg/min for ten minutes (at an infusion rate of about 1 ml/min) to determine responsiveness of each dog to renal dopamine receptor stimulation. Cumulative dose-response data were obtained by infusing a compound of this invention at progressively increasing (usually three-fold) infusion rates, each dose being infused for five minutes. The maximum % increase from pre-drug control in renal artery blood flow (or a decrease in renal vascular resistance) was determined for each infusion dose.
RBF values are percent change in renal blood flow. RVR values are percent change in renal vascular resistance. MABP and HR are percent changes in mean arterial blood pressure and heart rate, respectively, relative to controls.

[3] = read-out: MABP (mean arterial blood pressure)
[4] = read-out: dP/dt (maximum change left ventricular pressure with time)
[5] = read-out: RBF (renal blood flow)
[6] = read-out: RVR (renal vascular resistance)

COC(=O)CCc1c(O)nc(C)c2c(OC)c(OC)c(OC)cc12 [Compound J, 4-carbomethoxyethyl-3-hydroxy-6,7,8-trimethoxy-1-methylisoquinoline]
change in vivo at 0.875 mg/kg ([1]; read-out: CF (cardiac force)): 22%
change in vivo at 0.875 mg/kg ([1]; read-out: HR (heart rate)): 8%
change in vivo at 0.875 mg/kg [1, 3]: -4%
change in vivo at 0.875 mg/kg [1, 4]: 20%
change in vivo at 13.9 mg/kg [2, 3]: -1%
change in vivo at 13.9 mg/kg [2, 5]: 18%
change in vivo at up to 13.9 mg/kg [2, 6]: -23%

COc1cc2c(C)nc(O)c(CCC(=O)OC(C)C)c2cc1OC [Compound R, 4-β-Carboisopropoxyethyl-3-hydroxy-6,7-dimethoxy-1-methylisoquinoline]
change in vivo at 1.875 mg/kg ([1]; read-out: CF (cardiac force)): 22%
change in vivo at 1.875 mg/kg ([1]; read-out: HR (heart rate)): 3%
change in vivo at 1.875 mg/kg [1, 3]: -6%
change in vivo at 1.875 mg/kg [1, 4]: 15%

CCc1nc(O)c(CCC(=O)OC)c2cc(OC)c(OC)cc12 [K]
change in vivo at 0.875 mg/kg ([1]; read-out: CF (cardiac force)): 47%
change in vivo at 0.875 mg/kg ([1]; read-out: HR (heart rate)): 10%
change in vivo at 0.875 mg/kg [1, 3]: -3%
change in vivo at 0.875 mg/kg [1, 4]: 33%
change in vivo at 13.9 mg/kg [2, 5]: 28%
change in vivo at up to 13.9 mg/kg [2, 6]: -28%

COC(=O)CCc1c(O)ncc2cc(OC)c(OC)cc12 [Compound Q, 4-(β-Carbomethoxyethyl)-3-hydroxy-6,7-dimethoxyisoquinoline]
change in vivo at 0.875 mg/kg ([1]; read-out: CF (cardiac force)): 53%
change in vivo at 0.875 mg/kg ([1]; read-out: HR (heart rate)): 7%
change in vivo at 0.875 mg/kg [1, 3]: -4%
change in vivo at 0.875 mg/kg [1, 4]: 24%
change in vivo at 13.9 mg/kg [2, 5]: 42%
change in vivo at up to 13.9 mg/kg [2, 6]: -23%

COC(=O)CCc1c(O)nc(C(C)C)c2cc(OC)c(OC)cc12 [P]
change in vivo at 1.875 mg/kg ([1]; read-out: CF (cardiac force)): 15%
change in vivo at 1.875 mg/kg ([1]; read-out: HR (heart rate)): 7%
change in vivo at 1.875 mg/kg [1, 3]: 3%
change in vivo at 1.875 mg/kg [1, 4]: 17%

CCOc1cc2cnc(O)cc2cc1OC [AQ]
change in vivo at 1.2 mg/kg ([2]; read-out: HR (heart rate)): 16%
change in vivo at 1.2 mg/kg [2, 3]: 0%
change in vivo at 1.2 mg/kg [2, 5]: 13%
change in vivo at 1.2 mg/kg [2, 6]: -12%

CCOC(=O)CCc1c(O)nc(C)c2cc(OC)c(OC)cc12 [S]
change in vivo at 0.875 mg/kg ([1]; read-out: CF (cardiac force)): 60%
change in vivo at 0.875 mg/kg ([1]; read-out: HR (heart rate)): 8%
change in vivo at 0.875 mg/kg [1, 3]: -4%
change in vivo at 0.875 mg/kg [1, 4]: 20%

COc1cc2c(C)nc(O)c(CC(C)C)c2cc1OC [AJ]
change in vivo at 1.875 mg/kg ([1]; read-out: CF (cardiac force)): 39%
change in vivo at 1.875 mg/kg ([1]; read-out: HR (heart rate)): 10%
change in vivo at 1.875 mg/kg [1, 3]: -6%
change in vivo at 1.875 mg/kg [1, 4]: 25%
change in vivo at 6.2 mg/kg ([2]; read-out: HR (heart rate)): 2%
change in vivo at 6.2 mg/kg [2, 3]: 4%
change in vivo at 6.2 mg/kg [2, 5]: 9%
change in vivo at 6.2 mg/kg [2, 6]: -4%

CCCc1nc(O)c(CCC(=O)OC)c2cc(OC)c(OC)cc12 [M]
change in vivo at 1.875 mg/kg ([1]; read-out: CF (cardiac force)): 17%
change in vivo at 1.875 mg/kg ([1]; read-out: HR (heart rate)): 2%
change in vivo at 1.875 mg/kg [1, 3]: -4%
change in vivo at 1.875 mg/kg [1, 4]: 19%

CNC(=O)CCc1c(O)nc(C)c2cc(OC)c(OC)cc12 [X]
change in vivo at 0.875 mg/kg ([1]; read-out: CF (cardiac force)): 40%
change in vivo at 0.875 mg/kg ([1]; read-out: HR (heart rate)): 4%
change in vivo at 0.875 mg/kg [1, 3]: -5%
change in vivo at 0.875 mg/kg [1, 4]: 24%

COc1cc(Br)c2cc(O)nc(C)c2c1OC [AU]
change in vivo at 6.2 mg/kg ([2]; read-out: HR (heart rate)): -3%
change in vivo at 6.2 mg/kg [2, 3]: 0%
change in vivo at 6.2 mg/kg [2, 5]: 20%
change in vivo at 6.2 mg/kg [2, 6]: -10%

Cc1nc(O)cc2cc(O)c(O)cc12 [Compound A]
change in vivo at 13.9 mg/kg ([2]; read-out: HR (heart rate)): 14%
change in vivo at 13.9 mg/kg [2, 3]: -9%
change in vivo at 13.9 mg/kg [2, 5]: 30%
change in vivo at up to 13.9 mg/kg [2, 6]: -30%

CCOc1cc2c(C)nc(O)c(CC)c2cc1OC [AS]
change in vivo at 0.125 mg/kg ([1]; read-out: CF (cardiac force)): 78%
change in vivo at 0.125 mg/kg ([1]; read-out: HR (heart rate)): 8%
change in vivo at 0.125 mg/kg [1, 3]: -10%
change in vivo at 0.125 mg/kg [1, 4]: 49%
change in vivo at 6.2 mg/kg ([2]; read-out: HR (heart rate)): 2%
change in vivo at 6.2 mg/kg [2, 3]: -1%
change in vivo at 6.2 mg/kg [2, 5]: 9%
change in vivo at 6.2 mg/kg [2, 6]: -11%

COC(=O)C(C)Cc1c(O)nc(C)c2cc(OC)c(OC)cc12 (centres unmarked) [O]
change in vivo at 1.875 mg/kg ([1]; read-out: CF (cardiac force)): 100%
change in vivo at 1.875 mg/kg ([1]; read-out: HR (heart rate)): 21%
change in vivo at 1.875 mg/kg [1, 3]: 0%
change in vivo at 1.875 mg/kg [1, 4]: 67%
change in vivo at 13.9 mg/kg [2, 5]: 15%
change in vivo at up to 13.9 mg/kg [2, 6]: -18%

COc1ccc2cc(O)ncc2c1OC [D]
change in vivo at 8.75 mg/kg ([1]; read-out: CF (cardiac force)): 60%
change in vivo at 8.75 mg/kg ([1]; read-out: HR (heart rate)): 13%
change in vivo at 8.75 mg/kg [1, 3]: -7%
change in vivo at 8.75 mg/kg [1, 4]: 34%
change in vivo at 13.9 mg/kg ([2]; read-out: HR (heart rate)): 3%
change in vivo at 13.9 mg/kg [2, 3]: -11%
change in vivo at 13.9 mg/kg [2, 5]: 21%
change in vivo at up to 13.9 mg/kg [2, 6]: -27%

COC(=O)CCc1c(O)ncc2cc3c(cc12)OCO3 [U]
change in vivo at 1.875 mg/kg ([1]; read-out: CF (cardiac force)): 26%
change in vivo at 1.875 mg/kg ([1]; read-out: HR (heart rate)): 6%
change in vivo at 1.875 mg/kg [1, 3]: 0%
change in vivo at 1.875 mg/kg [1, 4]: 28%

COC(=O)Cc1c(O)nc(C)c2cc(OC)c(OC)cc12 [W]
change in vivo at 0.875 mg/kg ([1]; read-out: CF (cardiac force)): 42%
change in vivo at 0.875 mg/kg ([1]; read-out: HR (heart rate)): 6%
change in vivo at 0.875 mg/kg [1, 3]: -1%
change in vivo at 0.875 mg/kg [1, 4]: 28%
change in vivo at 13.9 mg/kg [2, 5]: 64%
change in vivo at up to 13.9 mg/kg [2, 6]: -62%

CCOc1cc2cc(O)nc(C)c2cc1OC [AW]
change in vivo at 6.2 mg/kg ([2]; read-out: HR (heart rate)): 59%
change in vivo at 6.2 mg/kg [2, 3]: -17%
change in vivo at 6.2 mg/kg [2, 5]: 20%
change in vivo at 6.2 mg/kg [2, 6]: -34%

COc1cc2c(C)nc(O)c(C(=O)NN)c2cc1OC [AV]
change in vivo at 1.87 mg/kg ([1]; read-out: CF (cardiac force)): 89%
change in vivo at 1.87 mg/kg ([1]; read-out: HR (heart rate)): 14%
change in vivo at 1.87 mg/kg [1, 3]: -2%
change in vivo at 1.87 mg/kg [1, 4]: 34%
change in vivo at 1.2 mg/kg ([2]; read-out: HR (heart rate)): 1%
change in vivo at 1.2 mg/kg [2, 3]: 5%
change in vivo at 1.2 mg/kg [2, 5]: 22%
change in vivo at 1.2 mg/kg [2, 6]: -13%

COc1cc2c(C)nc(O)c(CCC(=O)OC3CCCC3)c2cc1OC [T]
change in vivo at 0.875 mg/kg ([1]; read-out: CF (cardiac force)): 23%
change in vivo at 0.875 mg/kg ([1]; read-out: HR (heart rate)): 9%
change in vivo at 0.875 mg/kg [1, 3]: -3%
change in vivo at 0.875 mg/kg [1, 4]: 29%

COC(=O)CCc1c(O)nc(C)c2cc3c(cc12)OCO3 [L]
change in vivo at 0.875 mg/kg ([1]; read-out: CF (cardiac force)): 131%
change in vivo at 0.875 mg/kg ([1]; read-out: HR (heart rate)): 38%
change in vivo at 0.875 mg/kg [1, 3]: -21%
change in vivo at 0.875 mg/kg [1, 4]: 118%

COc1ccc2cc(O)nc(C)c2c1OC [Compound C, 3-Hydroxy-7,8-dimethoxy-1-methylisoquinoline]
change in vivo at 0.875 mg/kg ([1]; read-out: CF (cardiac force)): 62%
change in vivo at 0.875 mg/kg ([1]; read-out: HR (heart rate)): 10%
change in vivo at 0.875 mg/kg [1, 3]: -6%
change in vivo at 0.875 mg/kg [1, 4]: 51%

Cc1nc(O)cc2ccc(O)c(O)c12 [Compound I]
change in vivo at 13.9 mg/kg ([2]; read-out: HR (heart rate)): 38%
change in vivo at 13.9 mg/kg [2, 3]: -4%
change in vivo at 13.9 mg/kg [2, 5]: 35%
change in vivo at up to 13.9 mg/kg [2, 6]: -29%

From patent US4822800A (Ortho Pharmaceutical Corporation, priority 1986, dated 1989)
